Measurements taken from PMC8766838, “Discovery of Small Molecule NSC290956 as a Therapeutic Agent for KRas Mutant Non-Small-Cell Lung Cancer” (Frontiers in Pharmacology, 2022).

Legend:
HRasG60A = target: T1, HRasG60A (Homo sapiens, UniProt P01112, G60A); test: SPR (steady-state); circular dichroism in support; assay type: binding
T1 construct: gene HRAS

KRas = target: T2, KRas (Homo sapiens, UniProt P01116, G12S); test: CETSA in A549 cells ([…]°C stabilization at […]); assay type: cell-based
T2 construct: endogenous, A549 cells

T1 sequence (P01112 1-166 G60A): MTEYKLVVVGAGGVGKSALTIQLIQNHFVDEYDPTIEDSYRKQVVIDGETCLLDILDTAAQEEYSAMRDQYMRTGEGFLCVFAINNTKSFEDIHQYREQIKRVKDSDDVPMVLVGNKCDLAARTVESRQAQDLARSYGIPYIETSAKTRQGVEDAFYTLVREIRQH

O=C1CSC2(CCN(CCCN3c4ccccc4Sc4ccc(Cl)cc43)CC2)N1 [NSC290956, 1-Thia-4,8-diazaspiro[4.5]decan-3-one,8-[3-(2-chloro-10H-phenothiazin-10-yl)propyl]]
Kd (HRasG60A): 21.3 µM
CETSA in A549 cells (4-6°C stabilization at 25 μM) (KRas): target engagement of NSC290956 in KRas-addicted H358 (KRasG12C) and A549 (KRasG12S) cell lines
